Experimental data reported in publication PMC9867241, “Antioxidant and Cytotoxic Activity of New Polyphenolic Derivatives of Quinazolin-4(3H)-one: Synthesis and In Vitro Activities Evaluation” (Pharmaceutics, 2022).

Key:
[1] = test system: LNCaP (prostate carcinoma) cells; assay: Cytotoxicity, Alamar blue assay, LNCaP cells; type: cell-based; conditions: Homo sapiens, 24 h exposure
From the text: Normal human foreskin (BJ) fibroblasts and two types of cancer cells, namely A549 (lung adenocarcinoma) and LNCaP (prostate carcinoma) purchased from American Type Culture Collection (Manassas, VA, USA), were used in the experiments. Each cell line was maintained in a different culture medium, depending on the metabolic necessities of the cells. BJ cells were maintained in Dulbecco’s modified Eagle’s medium (DMEM) with low glucose. A549 cells were maintained in DMEM with high glucose […], while LNCaP cells were grown in Roswell Park Memorial Institute (RPMI) 1640 medium with high glucose (5 g/L). All media used were supplemented with 10% fetal bovine serum (FBS) and were refreshed every two days. Cells were used in experiments or subcultured when they reached 70–80% confluence.
In 100 µL in 96-well plates, a number of 30,000 LNCaP cells, 15,000 A549 cells, and 7500 normal (BJ) cells were seeded. Because the cells have different sizes and volumes, the purpose of the different seedings was to achieve a confluency of 70–80% after 24 h. All types of cells were further exposed to the synthesized compounds (5a–d and 6a–d) for 24 h, at a concentration ranging from 12.5 to 100 µg/mL. Post-exposure, the media were removed, and the cells were washed with phosphate buffer saline (PBS). Their viability was evaluated using Alamar blue (AB) assay as previously described. Briefly, the cells were incubated with a 200 µM resazurin solution for 4 h. Using a Synergy 2 multi-mode microplate reader, we measured the fluorescence. The measurement was performed at λexcitation = 530/25 nm; λemission = 590/35 nm. We conducted the experiments using three biological replicates, each one including 6 technical replicates. As negative controls (NC), cells exposed to culture medium containing 0.2% DMSO were used. Compared to the NC (100%), the results were expressed as relative values. We used IC50 values for the potency evaluation, and calculated them for each cell line, using the dose-effect curves obtained by fitting the experimental data with a 4-parameter logistic curve.
Mean values ± standard deviation (SD) values of at least three biological replicates were used to calculate experimental data. One-way analysis of variance (ANOVA) with a post hoc Holm–Sidak test was used to statistically examine the data. Using SigmaPlot 11.0 software (Systat, Software Inc., Chicago, IL, USA), we performed the graphical display and data analysis. From a statistical point of view, the results were considered different, at values of p < 0.05.

[2] = Cupric reducing antioxidant capacity (CUPRAC) assay; set-up: concentration or dose not given beside the values; conditions: for CUPRAC, % of Activity of Trolox: relative to Trolox; for CUPRAC, % of Activity of Ascorbic Acid: relative to ascorbic acid
Description: The ability to donate electrons was evaluated for the compounds 5a–d and 6a–d, by the CUPRAC (CUPric reducing antioxidant capacity) method. The absorbance was measured against a blank sample, at λ = 450 nm. The assay was performed based on our group’s previous report by the adaptation of the initial report of Alam et al., Özyürek et al. and Apak et al.. With the use of Equation (4), the cupric ion reduction by compounds 5a–d and 6a–d was expressed as a percentage of the reference compound activity.
The Cu^2+ ions are reduced to Cu^+ ions by the electron-donating compounds. The Cu^+ ions are chelated by neocuproine, giving a colored complex with absorbance proportional to the quantity of Cu^+ ions that resulted.

[3] = Cu^2+ chelation assay (murexide competition)
From the text: With murexide as a chromophoric chelator, we performed the protocol followed for the evaluation of Cu^2+ chelating activities of the compounds using an adaptation of the method presented by Cesari et al. and Wu et al.. Using Equation (6), we calculated the copper chelation capacities of the 5a–d and 6a–d compounds:(6) copper chelation (%)=(A485/A520)control−(A485/A520)sample/(A485/A520)control×100
The evaluation of the Cu^2+ chelation activity of compounds was made based on the competition for Cu^2+ with murexide. The chelating activity of compounds for the cupric ions found in the current assay is significant for the pyrogallol derivatives, being quite close to EDTA-Na2.

[4] = DPPH˙ radical scavenging assay
Description: The stock solutions (1 mg/mL) of the tested compounds and the controls were obtained, by dissolving the substances in dimethyl sulfoxide (DMSO). Using Jasco V-530, an UV-VIS spectrophotometer (Jasco International Co., Ltd., Tokyo, Japan), we performed the colorimetric determinations in low-volume single-use 10 mm width cuvettes.
The assays were performed in triplicate and the results are presented as averages for each assay.
The DPPH˙ radical scavenging assay is based on the transfer of one hydrogen from the analyzed compound to the violet stable free radical DPPH˙ (2,2-diphenyl-1-picrylhydrazyl), as we convert it into a yellow compound. The absorbance of the reagent mixed with samples presented inversely proportional values to the amount of DPPH˙ neutralized. The absorbance of the reagent was measured at λ = 517 nm, according to our previous reports. The assay was made in the presence of various concentrations of samples. The used protocol is based on the report of Brand-Williams et al..

[5] = Fe^2+ chelation assay (ferrozine competition)
Description: In the protocol used for evaluating the Fe^2+ chelating ability of the compounds, the absorbances of the solutions were determined at λ = 562 nm, against a blank sample. The method was adapted from the initial report of Benzie and Strain et al., which was previously reported by our group. Using Equation (5), we calculated the iron chelation capacities of the 5a–d and 6a–d compounds:(5) iron chelation (%)=control absorbance−sample absorbance/control absorbance×100
The chelating capacity of the tested compounds of Fe^2+ was evaluated based on their competition for Fe^2+ with ferrozine.

| Compound | IC50 [1] [mg/L] | CUPRAC, % of Activity of Trolox [2] [%] | CUPRAC, % of Activity of Ascorbic Acid [2] [%] | Cupric ions Chelation Capacity (%) ([3]; 3.36 µg/mL) | Cupric ions Chelation Capacity (%) ([3]; 8.40 µg/mL) | Cupric ions Chelation Capacity (%) ([3]; 16.80 µg/mL) | IC50 [4] [µM] | IC50 (DPPH˙ scavenging) [4] [mg/L] | % of DPPH˙ Scavenging ([4]; 1.25 µg/mL) | % of DPPH˙ Scavenging ([4]; 2.5 µg/mL) | % of DPPH˙ Scavenging ([4]; 3.75 µg/mL) | % of DPPH˙ Scavenging ([4]; 5 µg/mL) | % of DPPH˙ Scavenging ([4]; 7.5 µg/mL) | % of DPPH˙ Scavenging ([4]; 10 µg/mL) | % of DPPH˙ Scavenging ([4]; 12.5 µg/mL) | % of DPPH˙ Scavenging ([4]; 15 µg/mL) [%] | Ferrous ions Chelation Capacity (%) ([5]; 17.70 µg/mL) | Ferrous ions Chelation Capacity (%) ([5]; 20.59 µg/mL) | Ferrous ions Chelation Capacity (%) ([5]; 29.41 µg/mL) | Ferrous ions Chelation Capacity (%) ([5]; 44.11 µg/mL) | further results |
| --- | --- | --- | --- | --- | --- | --- | --- | --- | --- | --- | --- | --- | --- | --- | --- | --- | --- | --- | --- | --- | --- |
| C=CCn1c(SCC(=O)NN=C(C)c2ccc(O)cc2O)nc2ccccc2c1=O [Compound 6a, 2-((3-Allyl-4-oxo-3,4-dihydroquinazolin-2-yl)thio)-N’-(1-(2,4-dihydroxyphenyl)ethylidene)acetohydrazide] | 43.4 | 12.83 | 13.46 | 10.96 | 20.64 | 31.79 | > 30 | >15 | - (- represents less than 5%) | - (- represents less than 5%) | - (- represents less than 5%) | - (- represents less than 5%) | - (- represents less than 5%) | - (- represents less than 5%) | 12.28% | 21.34 | - (- represents less than 5%) | - (- represents less than 5%) | - (- represents less than 5%) | - (- represents less than 5%) | Ferrous ions Chelation Capacity (%) ([5]; 58.82 µg/mL): - (- represents less than 5%); Ferrous ions Chelation Capacity (%) ([5]; 88.23 µg/mL): - (- represents less than 5%); Ferrous ions Chelation Capacity (%) ([5]; 117.64 µg/mL): - (- represents less than 5%); Ferrous ions Chelation Capacity (%) ([5]; 257.46 µg/mL): - (- represents less than 5%); Ferrous ions Chelation Capacity (%) ([5]; 343.28 µg/mL): - (- represents less than 5%) |
| CC(=NNC(=O)CSc1nc2ccccc2c(=O)n1Cc1ccccc1)c1ccc(O)cc1O [Compound 6b, 2-((3-Benzyl-4-oxo-3,4-dihydroquinazolin-2-yl)thio)-N’-(1-(2,4-dihydroxyphenyl)ethylidene)acetohydrazide] | 30.4 | 22.63 | 23.74 | 6.77 | 17.17 | 30.49 | > 30 | >15 | - (- represents less than 5%) | - (- represents less than 5%) | - (- represents less than 5%) | - (- represents less than 5%) | - (- represents less than 5%) | - (- represents less than 5%) | - (- represents less than 5%) | 11.59 | - (- represents less than 5%) | - (- represents less than 5%) | - (- represents less than 5%) | - (- represents less than 5%) | Ferrous ions Chelation Capacity (%) ([5]; 58.82 µg/mL): - (- represents less than 5%); Ferrous ions Chelation Capacity (%) ([5]; 88.23 µg/mL): - (- represents less than 5%); Ferrous ions Chelation Capacity (%) ([5]; 117.64 µg/mL): - (- represents less than 5%); Ferrous ions Chelation Capacity (%) ([5]; 257.46 µg/mL): - (- represents less than 5%); Ferrous ions Chelation Capacity (%) ([5]; 343.28 µg/mL): - (- represents less than 5%) |
| CCn1c(SCC(=O)NN=C(C)c2ccc(O)cc2O)nc2ccccc2c1=O [Compound 6c, N’-(1-(2,4-dihydroxyphenyl)ethylidene)-2-((3-ethyl-4-oxo-3,4-dihydroquinazolin-2-yl)thio)acetohydrazide] | > 100 | 29.09 | 30.52 | 7.47 | 16.75 | 26.72 | > 30 | >15 | - (- represents less than 5%) | - (- represents less than 5%) | - (- represents less than 5%) | - (- represents less than 5%) | - (- represents less than 5%) | - (- represents less than 5%) | 10.11% | 14.89 | - (- represents less than 5%) | - (- represents less than 5%) | - (- represents less than 5%) | - (- represents less than 5%) | Ferrous ions Chelation Capacity (%) ([5]; 58.82 µg/mL): - (- represents less than 5%); Ferrous ions Chelation Capacity (%) ([5]; 88.23 µg/mL): - (- represents less than 5%); Ferrous ions Chelation Capacity (%) ([5]; 117.64 µg/mL): - (- represents less than 5%); Ferrous ions Chelation Capacity (%) ([5]; 257.46 µg/mL): - (- represents less than 5%); Ferrous ions Chelation Capacity (%) ([5]; 343.28 µg/mL): - (- represents less than 5%) |
